How the values were obtained:
[1] = tested on: wounds in wildtype C57/BL6 mice; assay: Circular incision wound model, topical treatment, wildtype mice; format: in vivo, mouse; conditions: for pus formation in wound / wound healing (appearance): topical; for wound healing (appearance): FIG. 25, 26
Experimental: In the experimental testing according to the present invention, pairs of circular incision wounds on the backs of wildtype C57/BL6 and db−/db− mice (n=12 each) were treated daily with a seleno-compound according to the current invention or vehicle, topically for 10 days. Wound closure, vascular perfusion and tissue histology were assessed.

[2] = biological target: bovine serum albumin (Bos taurus, UniProt P02769); assay: ThioGlo assay, recycling of selenoxides by thiols: bovine serum albumin; conditions: thiol group on bovine serum albumin
Experimental: (§1) The purpose of these experiments was to determine whether thiols could reduce the selenoxides formed on oxidation of the seleno compounds. The ThioGlo assay was used to monitor the loss of thiol groups upon addition of selenoxides as this agent produces a fluorescent product in the presence of reduced thiols.
(§2) The ThioGlo reagent was prepared by diluting 30 μL of a stock solution (5 mg in 5.070 mL acetonitrile) in 2970 μL of 0.1 M pH 7.4 phosphate buffer. Preparation of the developing reagent was performed immediately prior to addition to standards or samples. Standard curves were prepared by addition of varying volumes, between 0 and 50 μL, of 10 μM GSH solution to wells in a 96-well plate. The volume in each well was made up to 50 μL with 0.1 M pH 7.4 phosphate buffer. 50 μL of ThioGlo•reagent was added to each standard, and incubated in the dark for 5 minutes. The fluorescence was measured using a PerSeptive Biosystems CytoFluor II fluorescence multi-well plate reader with λex=360 nm λem=530 nm. Standards using 10 μM Cys and 2 mg/mL BSA were produced in the same method.
(§3) Solutions of 8 μM SeMetO were produced by mixing 20 μM SeMet and 16 μM HOCl together, and incubating for 30 minutes. […] The fluorescence was measured using the PerSeptive Biosystems CytoFluor II fluorescence multi-well plate reader with λex=360 nm λem=530 nm. […]

[3] = ThioGlo assay, recycling of selenoxides by thiols: glutathione; conditions: GSH samples
Experimental: as §1, §2, §3

[4] = ThioGlo assay, recycling of selenoxides by thiols: cysteine; conditions: Cys samples
Experimental: as §1, §2, §3

[5] = tested on: human plasma; assay: 3-chlorotyrosine formation by HOCl in human plasma (LCMS); format: biochemical; conditions: FIG. 5B
Experimental: (§4) Varying concentrations of Se-sugars (1.0 mM-0.05 mM) were added to solutions containing 0.1 mg·mL^−1 of protein (BSA or Plasma).
(§5) 150 μL of each sample (Se1HSA1—Control) were added to 50 μL of 3 mM HOCl. Samples, with a final volume of 200 μL, were placed in a glass vial (8×40 mm, 1 mL, No. 98212, Alltech) labeled by etching with a diamond tipped pen or engraver. Proteins (0.1 mg in 200 μL) were delipidated and precipitated by the addition of 25 μL 0.3% (w/v) deoxycholic acid and 50 μL of 50% (w/v) TCA, with incubation on ice for 5 min. The glass vials containing samples were placed in 1.5 mL centrifuge tubes for 2 minutes at 9000 rpm at 5° C. (Eppendorf 5415R centrifuge) to pellet protein. Protein pellets were washed once with 5% (w/v) TCA, and twice with ice cold acetone (stored in […]) with 2 min, 9000 rpm, spins between washes in each case to settle pellets. The samples were then transferred to PicoTag hydrolysis vessels before the addition of 150 μL of 6 M HCl and 50 μL of thioglycolic acid into the PicoTag vessel and placed under vacuum in the oven at 110° C. for 16-18 hours. The PicoTag vessels were removed from oven and allowed to cool before releasing vacuum. […]
(§6) L-Tyrosine, 3-chlorotyrosine and di-tyrosine were analysed by LC-MS in the positive ion mode with a Finigan LCQ Deca XP ion-trap instrument coupled to a Finigan surveyor HPLC system. […]

[6] = tested on: BSA; assay: 3-chlorotyrosine formation by HOCl in BSA (LCMS); format: biochemical, bovine; conditions: FIG. 5A
Experimental: as §4, §5, §6

Chain of bovine serum albumin (P02769 25-607): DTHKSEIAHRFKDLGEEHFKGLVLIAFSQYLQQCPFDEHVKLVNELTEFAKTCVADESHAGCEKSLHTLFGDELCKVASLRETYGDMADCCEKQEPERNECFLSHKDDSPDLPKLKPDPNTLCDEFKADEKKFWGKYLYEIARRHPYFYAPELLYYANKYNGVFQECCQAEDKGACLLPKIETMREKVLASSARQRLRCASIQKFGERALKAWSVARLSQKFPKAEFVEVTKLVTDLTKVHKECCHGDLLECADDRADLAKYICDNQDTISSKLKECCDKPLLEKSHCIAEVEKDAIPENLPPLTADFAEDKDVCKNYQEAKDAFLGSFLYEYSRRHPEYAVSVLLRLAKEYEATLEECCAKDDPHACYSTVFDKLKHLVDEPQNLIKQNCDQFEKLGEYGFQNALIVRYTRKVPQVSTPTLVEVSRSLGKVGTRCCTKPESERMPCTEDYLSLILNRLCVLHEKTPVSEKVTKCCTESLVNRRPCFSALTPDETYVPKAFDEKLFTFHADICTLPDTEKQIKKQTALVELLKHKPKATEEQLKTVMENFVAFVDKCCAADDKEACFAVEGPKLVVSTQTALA

SMILES | wound healing (appearance) ([1]; same dose) | reduction of selenoxide by thiol group [2] | amount of thiols after selenoxide addition [3] | amount of thiols after selenoxide addition [4] | further results
O[C@@H]1C[Se]C[C@H]1O (racemic) [DHSred, DL-trans-3,4,-Dihydroxy-L-selenolane] | inferior healing |  |  |  | inflammatory response during wound healing ([1]; FIG. 25): resulted in an inflammatory response; pus formation in wound ([1]; same dose, FIG. 25): development of pus; wound healing (appearance) ([1]; same dose, listed as DL-trans-3,4,-Dihydroxy-L-selenolane): reduced wound healing; pus formation in wound ([1]; same dose, FIG. 25, listed as DL-trans-3,4,-Dihydroxy-L-selenolane): observable pus formation; scar tissue formed during wound healing ([1]; wildtype mice, same dose, FIG. 26): pronounced scar tissue build up
C[Se](=O)CC[C@H](N)C(=O)O (stereo partly drawn) [SeMetO, selenomethionine oxide] |  | less marked | dose dependent decreases | dose dependent decreases | 
O=[Se]1C[C@@H](O)[C@@H](O)[C@@H]1[C@H](O)CO (stereo partly drawn) [SeTalO] |  | less marked | dose dependent decreases | dose dependent decreases | 
OCC1[Se]CC(O)C(O)[C@@H]1O (stereo partly drawn) [compound 4, 1,5-Anhydro-5-seleno-L-gulitol] |  |  |  |  | 3-chloro-tyrosine formation by HOCl [5]: effectively preventing; 3-chloro-tyrosine formation by HOCl [6]: effectively preventing
OC[C@@H](O)[C@@H]1[Se]C[C@@H](O)[C@H]1O [compound 38, 1,4.-Anhydro-4-seleno-D-talitol] | improved wound closure and healing |  |  |  | 
